Laboratory results taken from patent US20250314644A1, “METHODS COMPRISING DETECTION OF ADP-HEPTOSE” (CHILDREN'S HOSPITAL MEDICAL CENTER, priority 2023, published 2025).

Columns and labels:
[1] = test system: Dnmt3a^−/− mice; assay: Cytokines measured in BM fluid after ADP-heptose in vivo; set-up: species or system mouse
Experimental: FIG. 9 depicts the effects of ADP-heptose on inflammatory cytokines and downstream signaling. (A) Heatmap of differentially expressed cytokines and chemokines as measured in the BM fluid of Dnmt3a^WT, Dnmt3a^KO, and Dnmt3a^KO; Alpk1^KO mice treated with ADP-heptose (0.5 mg/kg) in vivo. (B) Immunoblotting performed on THP1 cells untreated or treated with ADP-heptose (1 μg/ml) in combination with DMSO (−), UBE2N inhibitor at 5 μM (+), UBE2N inhibitor at 10 μM (++), IRAK1/4 inhibitor at 0.25 μM (+), and IRAK1/4 inhibitor at 0.5 μM (++) for 30 minutes. (C) Immunoblot analysis of NF-kB modulators on THP1 wildtype (WT), IRAK1KO, IRAK4KO, IRAK1/4d^KO, MyD88KO, and TRAF6^KO cells upon treatment with ADP-heptose (1 μg/ml) for 30 minutes.
Dysregulation of innate immune and inflammatory states is implicated in pre-leukemic conditions and overt leukemia by creating an inflammatory environment suppressive for normal hematopoiesis while promoting leukemic stem and progenitor cell expansion. Moreover, chronic inflammation associated with CHIP is implicated in cardiovascular disease. […] First, to determine whether ADP-heptose treatment creates an inflammatory milieu, Dnmt3a^−/− and WT mice were treated with ADP-heptose and cytokines were measured in the BM fluid.

[2] = test system: healthy donor cells; assay: Immunoblot of NF-κB activation in CD34+ HSPCs; type: cell-based, human
Experimental: (§1) Human CD34+ and MDS patient cells were maintained in StemSpan Serum-Free Expansion Media (Cat no. #09650, Stemcell Technologies) supplemented with 10 ng/ml of recombinant human stem cell factor (SCF) (Cat no. 300-07-50UG, PeproTech), recombinant human thrombopoietin (TPO) (Cat no. 300-18-50UG, PeproTech), recombinant human FLT3 ligand (FLT3L) (Cat no. 300-19-50UG, PeproTech), recombinant human interleukin-3 (IL-3) (Cat no. 200-03-50UG, PeproTech), and recombinant human interleukin-6 (IL-6) (Cat no. 200-06-50UG, PeproTech), as previously described. Human CD34+ cells from healthy individuals were obtained from the Yale Cooperative Center of Excellence in Hematology (YCCEH). […]
(§2) Protein concentration was evaluated by bicinchoninic acid (BCA) assay (Pierce, Cat #23225). SDS sample buffer was added to the lysates and the proteins were separated by SDS-polyacrylamide gel electrophoresis, transferred to PVDF or nitrocellulose membranes (BIO-RAD, Cat #1620112), and analyzed by immunoblotting. […] Membranes were visualized using ECL Western Blotting Substrate (Pierce, #32106) or SuperSignal West Femto Substrate (Thermo Scientific, #34096), imaged on a BIO-RAD ChemiDoc Touch Imaging system and analyzed with Image lab software 6.0.1 (Biorad) or Image J (22930834).

[3] = test system: MDS CD34+ HSPCs; assay: Immunoblot of NF-κB activation in CD34+ HSPCs; type: cell-based, human
Experimental: as §1, §2

Nc1ncnc2c1ncn2[C@@H]1O[C@H](COP(=O)(O)OP(=O)(O)O[C@@H]2O[C@H]([C@H](O)CO)[C@@H](O)[C@H](O)[C@@H]2O)[C@@H](O)[C@H]1O [ADP-heptose, ADP-D-glycero-β-D-manno-heptose]
cytokines in BM fluid (IL-1β, G-CSF, TNFα) [1]: elevated expression of numerous cytokines | TIFA-dependent activation of NF-κB (phosphorylated IKKα/β and RelA) [2]: not in healthy donor cells | TIFA-dependent activation of NF-κB (phosphorylated IKKα/β and RelA) [3]: able to induce TIFA-dependent activation of NF-κB
